Counter-ions that a name gives are not always drawn.
| melting point [°C] | SMILES |
| --- | --- |
| 166 to 169 | Cn1c(=O)c2c(nc(N3CC[C@H](N)C3)n2Cc2ccccc2)n(C)c1=O (as salt: HCl) [Example 3, (S) 8-(3-Aminopyrrolidin-1-yl)-7-benzyl-1,3-dimethyl-3,7-dihydropurine-2,6-dione] |
| 104 to 117 | Cn1c(=O)c2c(nc(N3CC[C@H](N)C3)n2Cc2ccccc2C#N)n(C)c1=O (as salt: HCl) [Example 8, (S) 2-(8-(3-Aminopyrrolidin-1-yl)-1,3-dimethyl-2,6-dioxo-1,2,3,6-tetrahydropurin-7-ylmethyl)benzonitrile] |
| 215 to 217 | Cn1c(=O)c2c(nc(N3CC[C@H](N)C3)n2Cc2ccccc2Br)n(C)c1=O (as salt: HCl) [Example 12, (S) 8-(3-Aminopyrrolidin-1-yl)-7-(2-bromobenzyl)-1,3-dimethyl-3,7-dihydropurine-2,6-dione] |
